# System: HIV-1 (IIIB)
# Test: Antiviral (HIV) assay in MT-4 cells
# Format: cell-based
# Conditions: Human immunodeficiency virus 1, MT4, 120 h; HIV-1 IIIB in MT-4 cells, 5 days incubation, Cell Titer Glo; average of at least two independent experiments
# Method in brief: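 MT-4 cells, infected with HIV-1 IIIB (1:250 dilution of concentrated stock) or mock-infected, were exposed to 1:3 serially diluted compounds in RPMI with 10% FBS. After 5 days at 37° C., CellTiter-Glo luminescence was read. EC50 = concentration causing […], from sigmoidal dose-response fits.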
row,Compound,EC50
1,"C[C@H](Cn1cnc2c(N)ncnc21)OCP(=O)(NC(C)(C)C(=O)O[C@H]1CC[C@H](C(C)(C)C)CC1)NC(C)(C)C(=O)O[C@H]1CC[C@H](C(C)(C)C)CC1 [Example 12, Bis(trans-4-(tert-butyl)cyclohexyl) 2,2′-((((((R)-1-(6-amino-9H-purin-9-yl)propan-2-yl)oxy)methyl)phosphoryl)bis(azanediyl))bis(2-methylpropanoate)]",172 nM
2,"C[C@H](Cn1cnc2c(N)ncnc21)OCP(=O)(NC(C)(C)C(=O)OC1CCOCC1)NC(C)(C)C(=O)OC1CCOCC1 [Example 24, Bis(tetrahydro-2H-pyran-4-yl) 2,2′-(((((1-(6-amino-9H-purin-9-yl)propan-2-yl)oxy)methyl)phosphoryl)bis(azanediyl))(R)-bis(2-methylpropanoate)]",> 500 nM
3,"CCCCCCOC(=O)C(C)(C)NP(=O)(CO[C@H](C)Cn1cnc2c(=N)n(Cc3oc(=O)oc3C)cnc21)NC(C)(C)C(=O)OCCCCCC [Example 83, Dihexyl 2,2′-(((((1-(6-imino-1-((5-methyl-2-oxo-1,3-dioxol-4-yl)methyl)-1,6-dihydro-9H-purin-9-yl)propan-2-yl)oxy)methyl)phosphoryl)bis(azanediyl))(R)-bis(2-methylpropanoate)]",6 nM
4,"CCCCCCOC(=O)C(C)(C)NP(=O)(CO[C@H](C)Cn1cnc2/c(=N\Cc3oc(=O)oc3C)n(Cc3oc(=O)oc3C)cnc21)NC(C)(C)C(=O)OCCCCCC [Example 84, Dihexyl 2,2′-(((((1-(1-((5-methyl-2-oxo-1,3-dioxol-4-yl)methyl)-6-(((5-methyl-2-oxo-1,3-dioxol-4-yl)methyl)imino)-1,6-dihydro-9H-purin-9-yl)propan-2-yl)oxy)methyl)phosphoryl)bis(azanediyl))(R,E)-bis(2-methylpropanoate)]",229 nM
5,"C[C@H](Cn1cnc2c(N)ncnc21)OCP(=O)(NC(C)(C)C(=O)O[C@H]1C[C@@H](c2ccccc2)C1)NC(C)(C)C(=O)O[C@H]1C[C@@H](c2ccccc2)C1 [Example 85, Bis((1s,3S)-3-phenylcyclobutyl) 2,2′-((((((R)-1-(6-amino-9H-purin-9-yl)propan-2-yl)oxy)methyl)phosphoryl)bis(azanediyl))bis(2-methylpropanoate)]",5 nM
6,"C[C@H](Cn1cnc2c(N)ncnc21)OCP(=O)(NC(C)(C)C(=O)OC1CC2(CCCCC2)C1)NC(C)(C)C(=O)OC1CC2(CCCCC2)C1 (stereo partly drawn) [Example 86, Di(spiro[3.5]nonan-2-yl) 2,2′-(((((1-(6-amino-9H-purin-9-yl)propan-2-yl)oxy)methyl)phosphoryl)bis(azanediyl))(R)-bis(2-methylpropanoate)]",5 nM
7,"C[C@H](Cn1cnc2c(N)ncnc21)OCP(=O)(NC(C)(C)C(=O)OCC12CCC(CC1)C2)NC(C)(C)C(=O)OCC12CCC(CC1)C2 [Example 87, Bis(bicyclo[2.2.1]heptan-1-ylmethyl) 2,2′-(((((1-(6-amino-9H-purin-9-yl)propan-2-yl)oxy)methyl)phosphoryl)bis(azanediyl))(R)-bis(2-methylpropanoate)]",6 nM
8,"C[C@H](Cn1cnc2c(N)ncnc21)OCP(=O)(NC(C)(C)C(=O)OCC1CCC(F)(F)CC1)NC(C)(C)C(=O)OCC1CCC(F)(F)CC1 [Example 88, Bis((4,4-difluorocyclohexyl)methyl) 2,2′-(((((1-(6-amino-9H-purin-9-yl)propan-2-yl)oxy)methyl)phosphoryl)bis(azanediyl))(R)-bis(2-methylpropanoate)]",3 nM
9,"C[C@H](Cn1cnc2c(N)ncnc21)OCP(=O)(NC(C)(C)C(=O)OCC1CCCCCC1)NC(C)(C)C(=O)OCC1CCCCCC1 [Example 89, Bis(cycloheptylmethyl) 2,2′-(((((1-(6-amino-9H-purin-9-yl)propan-2-yl)oxy)methyl)phosphoryl)bis(azanediyl))(R)-bis(2-methylpropanoate)]",6 nM
10,"C[C@H](Cn1cnc2c(N)ncnc21)OCP(=O)(NC(C)(C)C(=O)OC1CC(C2CCC2)C1)NC(C)(C)C(=O)OC1CC(C2CCC2)C1 (stereo partly drawn) [Example 90, Di([1,1′-bi(cyclobutan)]-3-yl) 2,2′-(((((1-(6-amino-9H-purin-9-yl)propan-2-yl)oxy)methyl)phosphoryl)bis(azanediyl))(R)-bis(2-methylpropanoate)]",7 nM
11,"C[C@H](Cn1cnc2c(N)ncnc21)OCP(=O)(NC(C)(C)C(=O)OC[C@H]1CC[C@H](C)CC1)NC(C)(C)C(=O)OC[C@H]1CC[C@H](C)CC1 [Example 91, Bis((trans-4-methylcyclohexyl)methyl) 2,2′-((((((R)-1-(6-amino-9H-purin-9-yl)propan-2-yl)oxy)methyl)phosphoryl)bis(azanediyl))bis(2-methylpropanoate)]",5 nM
12,CCC[C@H]1CC[C@H](COC(=O)C(C)(C)NP(=O)(CO[C@H](C)Cn2cnc3c(N)ncnc32)NC(C)(C)C(=O)OC[C@H]2CC[C@H](CCC)CC2)CC1 [Example 92],23 nM
13,"C[C@H](Cn1cnc2c(N)ncnc21)OCP(=O)(NC(C)(C)C(=O)O[C@H]1CC[C@H](c2ccccc2)CC1)NC(C)(C)C(=O)O[C@H]1CC[C@H](c2ccccc2)CC1 [Example 93, Bis(trans-4-phenylcyclohexyl) 2,2′-((((((R)-1-(6-amino-9H-purin-9-yl)propan-2-yl)oxy)methyl)phosphoryl)bis(azanediyl))bis(2-methylpropanoate)]",97 nM
14,"CCCCCCOC(=O)C(C)(C)NP(=O)(CO[C@H](C)Cn1cnc2c(NC(=O)OCCOC(=O)c3ccccc3)ncnc21)NC(C)(C)C(=O)OCCCCCC [Example 94, Dihexyl 2,2′-(((((1-(6-(((2-(benzoyloxy)ethoxy)carbonyl)amino)-9H-purin-9-yl)propan-2-yl)oxy)methyl)phosphoryl)bis(azanediyl))(R)-bis(2-methylpropanoate)]",130 nM
15,"CCCCCCOC(=O)C(C)(C)NP(=O)(CO[C@H](C)Cn1cnc2c(NC(=O)OCC(=O)OCc3oc(=O)oc3C)ncnc21)NC(C)(C)C(=O)OCCCCCC [Example 95, Dihexyl 2,2′-(((((1-(6-(((2-((5-methyl-2-oxo-1,3-dioxol-4-yl)methoxy)-2-oxoethoxy)carbonyl)amino)-9H-purin-9-yl)propan-2-yl)oxy)methyl)phosphoryl)bis(azanediyl))(R)-bis(2-methylpropanoate)]",27 nM
16,"CCCCCCOC(=O)C(C)(C)NP(=O)(CO[C@H](C)Cn1cnc2c(NC(=O)[C@H]3CCC(=O)O3)ncnc21)NC(C)(C)C(=O)OCCCCCC [Example 96, Dihexyl 2,2′-((((((R)-1-(6-((R)-5-oxotetrahydrofuran-2-carboxamido)-9H-purin-9-yl)propan-2-yl)oxy)methyl)phosphoryl)bis(azanediyl))bis(2-methylpropanoate)]",11 nM
17,"CCCCCCOC(=O)C(C)(C)NP(=O)(CO[C@H](C)Cn1cnc2c(NC(=O)OCC(C)(C)C(=O)OCc3oc(=O)oc3C)ncnc21)NC(C)(C)C(=O)OCCCCCC [Example 98, Dihexyl 2,2′-(((((1-(6-(((2,2-dimethyl-3-((5-methyl-2-oxo-1,3-dioxol-4-yl)methoxy)-3-oxopropoxy)carbonyl)amino)-9H-purin-9-yl)propan-2-yl)oxy)methyl)phosphoryl)bis(azanediyl))(R)-bis(2-methylpropanoate)]",213 nM
18,"CCCCCCOC(=O)C(C)(C)NP(=O)(CO[C@H](C)Cn1cnc2c(NC(=O)CCCC(=O)OCc3oc(=O)oc3C)ncnc21)NC(C)(C)C(=O)OCCCCCC [Example 99, (5-Methyl-2-oxo-1,3-dioxol-4-yl)methyl 5-[[9-[(2R)-2-[bis[(2-hexoxy-1,1-dimethyl-2-oxo-ethyl)amino]phosphorylmethoxy]propyl]purin-6-yl]amino]-5-oxo-pentanoate]",91 nM
19,"CCCCCCOC(=O)C(C)(C)NP(=O)(CO[C@H](C)Cn1cnc2c(NC(=O)OC(C)(C)CC(=O)OCc3oc(=O)oc3C)ncnc21)NC(C)(C)C(=O)OCCCCCC [Example 101, Dihexyl 2,2′-(((((1-(6-((((2-methyl-4-((5-methyl-2-oxo-1,3-dioxol-4-yl)methoxy)-4-oxobutan-2-yl)oxy)carbonyl)amino)-9H-purin-9-yl)propan-2-yl)oxy)methyl)phosphoryl)bis(azanediyl))(R)-bis(2-methylpropanoate)]",12 nM
20,"CCCCCCOC(=O)C(C)(C)NP(=O)(CO[C@H](C)Cn1cnc2c(NC(=O)CC(C)(C)CC(=O)OCc3oc(=O)oc3C)ncnc21)NC(C)(C)C(=O)OCCCCCC [Example 102, Dihexyl 2,2′-(((((1-(6-(3,3-dimethyl-5-((5-methyl-2-oxo-1,3-dioxol-4-yl)methoxy)-5-oxopentanamido)-9H-purin-9-yl)propan-2-yl)oxy)methyl)phosphoryl)bis(azanediyl))(R)-bis(2-methylpropanoate)]",> 500 nM

# System: PBMCs
# Test: TFV-DP formation in peripheral blood mononuclear cells (PBMCs)
# Format: in vitro ADME, human
# Conditions: activated PBMCs, 1 μM compound, 50% serum, 2 hrs at 37° C.; intracellular volume 0.2 pL/cell; average of at least two independent experiments
# Method: Example 109: TFV-DP Formation in Peripheral Blood Mononuclear Cells (PBMCs)
# Compounds were tested in a 96-well assay format for the level of TFV-DP loading in PBMCs in the presence of human serum. PBMCs were activated with 100 units/mL recombinant human […] and 2 μg/mL phytohaemagglutinin (PHA) for 36 hrs. After activation, PBMCs (2 million) were incubated with compounds (1 μM) and cell culture media with 50% serum in a 96 well plate for 2 hrs at 37° C. Cells were transferred to a 96 well deep block plate and spun down. Liquid was removed, and cells were washed 2× with 1 mL of 0.9% saline with spin downs between washes. After a final wash and liquid removal, 500 μL of MeOH+200 nM Cl-ATP+200 nM [adenine-^13C5]-tenofovir diphosphate (tetra ammonium salt) was added and thoroughly mixed with the cells. The plate was then spun down and 450 μL of sample was transferred to a new 96 well plate. Supernatants were then evaporated, reconstituted in 80 μl of 1 mM ammonium phosphate and thoroughly vortexed. Blank samples were pooled for serial dilution to construct calibration standards for TFV, TFV-DP and TFV-TP in pmol/million cells. Samples were then transferred to a short-well 96 well plate, centrifuged and injected on an LC-MS/MS for quantification. Values were reported in μM units using an intracellular volume of 0.2 pL/cell.
row,Compound,Average PBMC TFV-DP (μM)
1,"C[C@H](Cn1cnc2c(N)ncnc21)OCP(=O)(NC(C)(C)C(=O)O[C@H]1CC[C@H](C(C)(C)C)CC1)NC(C)(C)C(=O)O[C@H]1CC[C@H](C(C)(C)C)CC1 [Example 12, Bis(trans-4-(tert-butyl)cyclohexyl) 2,2′-((((((R)-1-(6-amino-9H-purin-9-yl)propan-2-yl)oxy)methyl)phosphoryl)bis(azanediyl))bis(2-methylpropanoate)]",BLQ
2,"C[C@H](Cn1cnc2c(N)ncnc21)OCP(=O)(NC(C)(C)C(=O)OC1CCOCC1)NC(C)(C)C(=O)OC1CCOCC1 [Example 24, Bis(tetrahydro-2H-pyran-4-yl) 2,2′-(((((1-(6-amino-9H-purin-9-yl)propan-2-yl)oxy)methyl)phosphoryl)bis(azanediyl))(R)-bis(2-methylpropanoate)]",BLQ
3,"CCCCCCOC(=O)C(C)(C)NP(=O)(CO[C@H](C)Cn1cnc2c(NC(=O)CC(C)(C)CC(=O)OCc3oc(=O)oc3C)ncnc21)NC(C)(C)C(=O)OCCCCCC [Example 102, Dihexyl 2,2′-(((((1-(6-(3,3-dimethyl-5-((5-methyl-2-oxo-1,3-dioxol-4-yl)methoxy)-5-oxopentanamido)-9H-purin-9-yl)propan-2-yl)oxy)methyl)phosphoryl)bis(azanediyl))(R)-bis(2-methylpropanoate)]",BLQ

# From patent publication US12110305B2, “Prodrugs of phosphonamide nucleotide analogues and their pharmaceutical use” (priority 2020, dated 2024)
